Assay results reported in patent US20110142848A1, “ANTI-BETA-2-MICROGLOBULIN AGENTS AND THE USE THEREOF” (priority 2008, published 2011).

How the values were obtained:
C4-2B (KD) cells = assay: MTS cell proliferation assay, C4-2B (KD); format: cell-based, human; conditions: C4-2B (KD) versus neo-control
Experimental: For example, six thousand (6,000) cells per well may be plated in 96 well plates, which may be cultured in 1% DCC-FBS (dextran-coated, charcoal-treated fetal bovine serum) containing T medium (C4-2B) or serum-free T medium (PC3) with 5% CO2 at 37° C. overnight. Cells may then be treated with anti-β2-M mAbs for 48 h. […] Two to four days post-treatment, cell growth may be determined by MTS assay using the CellTiter96 Aqueous One Solution Cell Proliferation Assay (Promega) according to the manufacturer's instructions.

neo-control cells = assay: MTS cell proliferation assay, neo-control cells; format: cell-based, human
Experimental: For example, six thousand (6,000) cells per well may be plated in 96 well plates, which may be cultured in 1% DCC-FBS (dextran-coated, charcoal-treated fetal bovine serum) containing T medium (C4-2B) or serum-free T medium (PC3) with 5% CO2 at 37° C. overnight. Cells may then be treated with anti-β2-M mAbs for 48 h. Chemotherapeutic agents, such as PS-341, gemcitabine, cisplatin, doxorubicin, taxotere, or 17-AAG, may then be added to the culture media. Two to four days post-treatment, cell growth may be determined by MTS assay using the CellTiter96 Aqueous One Solution Cell Proliferation Assay (Promega) according to the manufacturer's instructions. Results from these experiments are shown in FIGS. 7-21, with various chemotherapeutic agents.

Structure (SMILES)	sensitivity to growth inhibition, β2-M knockdown cells compared with neo-control cells (C4-2B (KD) cells)	growth inhibition by agent alone (neo-control cells; PS-341 at concentrations of 1 (AM or higher))	growth inhibition by agent alone (neo-control cells; gemcitabine at lower doses (10 μM or lower))
CC(C)C[C@H](NC(=O)[C@H](Cc1ccccc1)NC(=O)c1cnccn1)B(O)O [PS-341, bortezomib]	more sensitive	effective by itself	
N.N.[Cl][Pt][Cl] [cisplatin]	more sensitive		
Nc1ccn([C@@H]2O[C@H](CO)[C@@H](O)C2(F)F)c(=O)n1 [gemcitabine]	more sensitive		not particularly effective
CC(=O)O[C@@]12CO[C@@H]1C[C@H](O)[C@@]1(C)C(=O)[C@H](O)C3=C(C)[C@@H](OC(=O)[C@H](O)[C@@H](NC(=O)OC(C)(C)C)c4ccccc4)C[C@@](O)([C@@H](OC(=O)c4ccccc4)[C@H]21)C3(C)C [taxotere]	more sensitive		
